Measurements: US8084459B2, “Substituted quinazolinones for treating neurological conditions” (Prana Biotechnology Ltd, priority 2004, dated 2011)
Counter-ions that a name gives are not always drawn.

Target: T1, Aβ 1-42 (Homo sapiens, UniProt P05067)
T1 construct: The reaction solutions contained Aβ 1-42 at concentrations
Assay: Assay 1 Fluorometric H2O2 assay (peroxide)
Type: biochemical
Settings: inhibition of H2O2 generation by Aβ with copper
Protocol: Assay 1. Fluorometric H2O2 Assay
A fluorometric assay was used to test the ability of a test compound to inhibit hydrogen peroxide generation by Aβ in the presence of copper based on dichlorofluoroscein diacetate (DCF; Molecular Probes, Eugene Oreg.). The DCF solution (5 mM) in 100% dimethyl sulphoxide (previously purged with argon for 1 hr at 20° C.) was deacetylated in the presence of 0.025M NaOH for 30 min and neutralised at pH 7.4 to a final concentration of 1 mM. Horseradish peroxidase (HRP) stock solution was prepared to 1 μM at pH 7.4. The reactions were carried out in PBS, pH 7.4 in a 96 well plate (total volume=250 μl/well). The reaction solutions contained Aβ 1-42 at concentrations in the range of 50 nM to 1 μM, copper-glycine chelate (Cu-Gly), was prepared by adding CuCl2 to glycine in the ratio of 1:6 and added to the Aβ in the proportion 2Cu-Gly:1Aβ), reducing agents including dopamine (5 μM) or ascorbic acid, deacetylated DCF 100 μM, and HRP, 0.1 μM. 1-10 μM EDTA or another chelator may also be present as a control for free copper, but was not required for the assay to function. The reaction mixture was incubated at 37 C for 60 min. Catalase (4000 units/ml) and H2O2 (1-2.5 μM) standards in PBS pH 7.4 may be included as positive controls. Fluorescence was recorded using a plate reader with excitation and emission filters at […] respectively. H2O2 concentration may be established by comparing fluorescence with the H2O2 standards. Inhibition of Aβ H2O2 production was assayed by including a given concentration of test compound(s) in the test wells.

T1 sequence (P05067 672-713 limits assumed): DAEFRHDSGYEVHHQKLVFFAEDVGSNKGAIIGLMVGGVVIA

Row | SMILES | IC50 [nM]
1 | CN1CCCC1CCn1cnc2c(O)c(Cl)cc(Cl)c2c1=O (centres unmarked) [Compound 1078] | 730
2 | Cc1cnc(-n2cnc3c(O)c(Cl)cc(Cl)c3c2=O)s1 [Compound 1082] | 4500
3 | Cn1c(-n2cnc3c(O)c(Cl)cc(Cl)c3c2=O)nc2ccccc21 [Compound 1083] | 2300
4 | O=c1c2c(Cl)cc(Cl)c(O)c2ncn1N1CCCCC1 [Compound 1086] | 390
5 | O=c1c2c(Cl)cc(Cl)c(O)c2ncn1-c1cccnc1 [Compound 1092] | 860
6 | COc1ccc(-n2cnc3c(O)c(Cl)cc(Cl)c3c2=O)cn1 [Compound 1093] | 390
7 | Br.Cc1cccnc1Cn1cnc2c(O)c(Cl)cc(Cl)c2c1=O [Compound 1098] | 440
8 | Nn1cnc2c(O)c(Cl)cc(Cl)c2c1=O [Compound 1099, 3-Amino-5,7-dichloro-8-hydroxy-3H-quinazolin-4-one hydrobromide] | 690
9 | Br.CC(C)Cn1cnc2c(O)c(Cl)cc(Cl)c2c1=O [Compound 1107] | 400
10 | Br.CC(C)n1cnc2c(O)c(Cl)cc(Cl)c2c1=O [Compound 1108] | 250
11 | CCN(CC)CCn1cnc2c(O)c(Cl)cc(Cl)c2c1=O [Compound 1110] | 460
12 | CCCCn1cnc2c(O)c(Cl)cc(Cl)c2c1=O [Compound 1111] | 320
13 | Br.CCC(C)n1cnc2c(O)c(Cl)cc(Cl)c2c1=O (centres unmarked) [Compound 1112] | 330
14 | CC(Br)CCn1cnc2c(O)c(Cl)cc(Cl)c2c1=O (centres unmarked) [Compound 1114] | 580
15 | CCn1cnc2c(O)c(Cl)cc(Cl)c2c1=O [Compound 1115] | 730
16 | C/C=C/Cn1cnc2c(O)c(Cl)cc(Cl)c2c1=O [Compound 1126] | 370
17 | CCn1cnc2c(O)ccc(Cl)c2c1=O [Compound 1130] | 880
18 | CCCn1cnc2c(O)ccc(Cl)c2c1=O [Compound 1131] | 500
19 | CN(C)Cc1nc2c(O)c(Cl)cc(Cl)c2c(=O)[nH]1 [Compound 1147] | 260
20 | CNCc1nc2c(O)c(Cl)cc(Cl)c2c(=O)n1C [Compound 1161] | 140

Test system: not listed separately
Assay: Assay 3(d) test compound cytotoxicity (MTS)
Type: cell-based
Settings: BL6Jx129sv, mouse, primary cortical neuronal cultures, 1 uM, cortical neurons, read-out: Assay 3(d) Cytotoxicity (% viable at 1 uM)
Protocol: Primary Cortical Neuronal Cultures
Cortical cultures were prepared as previously described (White et al., 1998). Embryonic day 14 BL6Jx129sv mouse cortices were removed, dissected free of meninges and dissociated in 0.025% (wt/vol) trypsin. Dissociated cells were plated in 48 well culture plates at a density of 2×10^6 cells/mL in MEM with 25% (vol/vol) FCS and 5% (vol/vol) HS and incubated at 37° C., 2 hrs. Media was then replaced with Neurobasal media (Invitrogen Life Technologies) and B27 supplements (Invitrogen Life Technologies). Cultures were maintained at 37° C. in 5% CO2. Prior to experimentation, the culture medium was replaced with Neurobasal media and B27 minus antioxidants (Invitrogen Life Technologies).
(a) MTS Assay for Cell Viability
Cell viability is determined using the MTS assay. Culture medium is replaced with fresh neurobasal medium plus B27 supplements minus antioxidants. 1/10 volume MTS solution (Cell Titre 96 Aqueous One, Promega Corporation) and incubated at 37° C., 2 hrs. 200 microlitre aliquots are measured with a spectrophotometer at 560 nm.
(d) Assay for Test Compound Cytoxicity
Neuronal cortical cells were cultured for five days as per Assay 2 in NB media and B27 supplement.
On day six the test compounds were added to the neuronal cell cultures in NB media and B27 supplement minus antioxidants.
Test compounds were dissolved in 100% DMSO to a concentration of 2.5 mM (10 mM if excess compound was weighed out per vial—then diluted to 2.5 mM). 2.5 mM stock solution was serially diluted 1 in 10 to give working solutions of 250 uM, 25 uM, 2.5 uM. Test compounds were not added directly to cells, instead they were added to a 48 well ‘Drug Plate’ as comprised below:
Preparation of “Drug Plate”:
• Well 1: 576 ul NB+B27 (no antioxidant)*+24 ul 2.5 uM test compound • Well 2: 576 ul NB+B27 (no antioxidant)+24 ul 25 uM test compound • Well 3: 576 ul NB+B27 (no antioxidant)+24 ul 250 uM test compound • Well 4: 576 ul NB+B27 (no antioxidant)+24 ul 2.5 uM test compound • Well 5: 576 ul NB+B27 (no antioxidant)+24 ul 25 uM test compound • Well 6: 576 ul NB+B27 (no antioxidant)+24 ul 250 uM test compound • Well 7: 576 ul NB+B27 (no antioxidant)+24 ul test compound diluent** • Well 8: 600 ul NB+B27 (no antioxidant)
The Drug Plate was incubated at 37° C. for 15 mins. 200 ul of each well was added in triplicate to the corresponding cell plate. The cell plate was incubated at 37° C., for 4 days, (2 compounds are tested on each plate of cells).
* NB media and B27 (no antioxidants),
** PBT diluent 10% DMSO in NB+B27 (no antioxidants)
On completion of the assay, 1/10 volume MTS was added per well of plate (ie 25 ul/250 ul). The plates were incubated at 37° C. for 2 hrs, and then absorbance was read at 560 nm.

Row | SMILES | viability at 4 days, 1 µM [%]
21 | CN1CCCC1CCn1cnc2c(O)c(Cl)cc(Cl)c2c1=O (centres unmarked) [Compound 1078] | 94
22 | Cc1cnc(-n2cnc3c(O)c(Cl)cc(Cl)c3c2=O)s1 [Compound 1082] | 94
23 | O=c1c2c(Cl)cc(Cl)c(O)c2ncn1N1CCCCC1 [Compound 1086] | 98
24 | O=c1c2c(Cl)cc(Cl)c(O)c2ncn1-c1cccnc1 [Compound 1092] | 95
25 | COc1ccc(-n2cnc3c(O)c(Cl)cc(Cl)c3c2=O)cn1 [Compound 1093] | 122
26 | Br.Cc1cccnc1Cn1cnc2c(O)c(Cl)cc(Cl)c2c1=O [Compound 1098] | 99
27 | Br.CC(C)Cn1cnc2c(O)c(Cl)cc(Cl)c2c1=O [Compound 1107] | 92
28 | Br.CC(C)n1cnc2c(O)c(Cl)cc(Cl)c2c1=O [Compound 1108] | 100
29 | CCCCn1cnc2c(O)c(Cl)cc(Cl)c2c1=O [Compound 1111] | 93
30 | Br.CCC(C)n1cnc2c(O)c(Cl)cc(Cl)c2c1=O (centres unmarked) [Compound 1112] | 89
31 | CCn1cnc2c(O)c(Cl)cc(Cl)c2c1=O [Compound 1115] | 101

Same assay, conditions: BL6Jx129sv, mouse, primary cortical neuronal cultures, 10 uM, cortical neurons, read-out: Assay 3(d) Cytotoxicity (% viable at 10 uM)

Row | SMILES | viability at 4 days, 10 µM [%]
32 | CN1CCCC1CCn1cnc2c(O)c(Cl)cc(Cl)c2c1=O (centres unmarked) [Compound 1078] | 94
33 | Cc1cnc(-n2cnc3c(O)c(Cl)cc(Cl)c3c2=O)s1 [Compound 1082] | 70
34 | Cn1c(-n2cnc3c(O)c(Cl)cc(Cl)c3c2=O)nc2ccccc21 [Compound 1083] | 97
35 | O=c1c2c(Cl)cc(Cl)c(O)c2ncn1N1CCCCC1 [Compound 1086] | 51
36 | O=c1c2c(Cl)cc(Cl)c(O)c2ncn1-c1cccnc1 [Compound 1092] | 81
37 | COc1ccc(-n2cnc3c(O)c(Cl)cc(Cl)c3c2=O)cn1 [Compound 1093] | 13
38 | Br.Cc1cccnc1Cn1cnc2c(O)c(Cl)cc(Cl)c2c1=O [Compound 1098] | 88
39 | Br.CC(C)Cn1cnc2c(O)c(Cl)cc(Cl)c2c1=O [Compound 1107] | 59
40 | Br.CC(C)n1cnc2c(O)c(Cl)cc(Cl)c2c1=O [Compound 1108] | 53
41 | CCN(CC)CCn1cnc2c(O)c(Cl)cc(Cl)c2c1=O [Compound 1110] | 77
42 | CCCCn1cnc2c(O)c(Cl)cc(Cl)c2c1=O [Compound 1111] | 67
43 | Br.CCC(C)n1cnc2c(O)c(Cl)cc(Cl)c2c1=O (centres unmarked) [Compound 1112] | 46
44 | CC(Br)CCn1cnc2c(O)c(Cl)cc(Cl)c2c1=O (centres unmarked) [Compound 1114] | 73
45 | CCn1cnc2c(O)c(Cl)cc(Cl)c2c1=O [Compound 1115] | 73

Test system: not listed separately
Assay: Assay 16 mouse plasma levels of test compounds
Type: in vivo
Settings: highest level found in mice (Up to); oral dosing 30 mg/kg described for PB 1075-1077
Protocol: Assay 16. Determination of Mouse Plasma Levels of Test Compounds PB 1075
Oral administration of PB 1075 at 30 mg/kg, as a suspension in Na-Carboxymethyl Cellulose (CMC) was administered by oral gavage to four mice. Two mice were sacrificed 30 minutes after administration and two mice were sacrificed 60 minutes after administration. Blood was obtained by cardiac puncture and plasma separated by centrifugation.
The concentration of PB 1075 was determined by LC/MS using the triple quadrupole instrument. The mobile phase consisted of an acetonitrile (ACN)/water gradient (containing 0.05% Formic acid) and the column was a Phenomenex Lunea 5 um C8 (50×2 mm) column.
The supplied acute toxicity mouse plasma samples were directly injected following a protein precipitation with ACN. The analytical method in plasma was linear in the range of 10 to 10,000 ng/ml (R^2=0.994). Recovery of PB 1075 from plasma was ˜100%.
Oral administration of PB 1076 at 30 mg/kg, as a suspension in Na-Carboxymethyl Cellulose (CMC) was administered by oral gavage to four mice. Two mice were sacrificed 30 minutes after administration and two mice were sacrificed 60 minutes after administration. Blood was obtained by cardiac puncture and plasma separated by centrifugation.
The concentration of PB 1076 was determined by LC/MS using the triple quadrupole instrument. The mobile phase consisted of an acetonitrile (ACN)/water gradient (containing 0.05% Formic acid) and the column was a Phenomenex Luna 5 μM C8 (50×2 mm) column.
The mouse plasma samples were directly injected following a protein precipitation with ACN. The analytical method in plasma was linear in the range of 500 to 10,000 ng/ml (R^2=0.999). Recovery of PB 1076 from plasma was ˜85%.
Oral administration of PB 1077 at 30 mg/kg, as a suspension in Na-Carboxymethyl Cellulose (CMC) was administered by oral gavage to four mice. Two mice were sacrificed 30 minutes after administration and two mice were sacrificed 60 minutes after administration. Blood was obtained by cardiac puncture and plasma separated by centrifugation.
The concentration of PB 1077 was determined by LC/MS using the triple quadrupole instrument. The mobile phase consisted of an acetonitrile (ACN)/water gradient (containing 0.05% Formic acid) and the column was a Phenomenex Luna 5 μM C8 (50×2 mm) column.
The mouse plasma samples were directly injected following a protein precipitation with ACN. The analytical method in plasma was linear in the range of 5 to 5,000 ng/ml (R^2=0.999). Recovery of PB 1077 from plasma was ˜92%.

Row | SMILES | Assay 16 Mice plasma concentration
46 | CN1CCCC1CCn1cnc2c(O)c(Cl)cc(Cl)c2c1=O (centres unmarked) [Compound 1078] | Up to 262 ng/mL in
47 | Br.CCC(C)n1cnc2c(O)c(Cl)cc(Cl)c2c1=O (centres unmarked) [Compound 1112] | Upto 2949 ng/mL in
